Assay results taken from patent US20040023994A1 (priority 2002, published 2004).
Marks after values point to notes of the source that are not given here.

Legend:
786-0 = settings: 786-0, Renal, NCI database, cited from earlier work
HL-60(TB) = settings: cited from earlier work
CCRF-CEM = settings: Leukemia, NCI database, cited from earlier work
KM12 = settings: KM12, Colon, NCI database, cited from earlier work
SR = settings: Leukemia, NCI database, cited from earlier work
[1] = test system: Heterozygous nude CD-1 male mice; test: Hematology analyses in treated mice; settings: i.p.
Experimental: Heterozygous nude CD-1 male mice were treated (i.p.) with multiple doses consisting of either one dose daily for three consecutive days (cis-AVTP or trans-AVTG, 21.25 μmol/kg, 6-TG, 8.5 or 21.25 μmol/kg, or vehicle; one cycle), or one dose daily for three consecutive days, repeated again five days later (cis-AVTP, trans-AVTG or 6-TG, 8.5 or 21.25 μmol/kg, or vehicle; two cycles).
The mice were sacrificed 24 h after the last treatment. Urine was collected for 24 h before initiation of treatment and every 24 h thereafter until the mice were sacrificed. Blood was collected by cardiac puncture and blood cells counted. Sections of liver, kidney, intestines, stomach and sternum were stained with hematoxylin and eosin and subjected to pathological analysis. Bone marrow smears were prepared for assessment of bone marrow cellularity. Liver function was evaluated by measuring alanine aminotransferase-(ALT) and aspartate aminotransferase (AST) activities in plasma. Kidney function was evaluated by measuring blood urea nitrogen in plasma and γ-glutamyltransferase activity and glucose levels in urine.

[2] = cited from earlier work
MDA-MB-435 = settings: MDA-MB-435, Breast, NCI database, cited from earlier work
OVCAR-4 = settings: OVCAR-4, Ovarian, NCI database, cited from earlier work
OVCAR-8 = settings: OVCAR-8, Ovarian, NCI database, cited from earlier work
[3] = read-out: LC50 (the source's name)

Q: With `Nc1nc2nc[nH]c2c(=S)[nH]1` [6-TG, 6-thioguanine] as the molecule, how does the GI50 (786-0) read?
A: 0.82 µM

Q: What about the TGI (786-0) of the same molecule?
A: >100 µM

Q: And the CC50 (786-0; [3])?
A: > 100 µM

Q: What about the GI50 (HL-60(TB); Leukemia, NCI database) of the same molecule?
A: 1.07 µM

Q: And the TGI (HL-60(TB); Leukemia, NCI database)?
A: 17.8 µM

Q: And the CC50 (HL-60(TB); read-out: LC50, Leukemia, NCI database)?
A: > 100 µM

Q: What about the CC50 (CCRF-CEM; [3]) of the same molecule?
A: > 100 µM

Q: What about the GI50 (CCRF-CEM) of the same molecule?
A: 0.15 µM

Q: What about the TGI (CCRF-CEM) of the same molecule?
A: 25.4 µM

Q: And the GI50 (KM12)?
A: 1.72 µM

Q: And the TGI (KM12)?
A: 31.5 µM

Q: And the CC50 (KM12; [3])?
A: > 100 µM

Q: What about the CC50 (SR; [3]) of the same molecule?
A: > 100 µM

Q: And the GI50 (SR)?
A: 0.19 µM

Q: And the TGI (SR)?
A: 17.9 µM

Q: And the PLT ([1]; 8.5 μmol/kg, one cycle)?
A: 1172 ± 161 × 10^3 cells/μl

Q: And the RBC ([1]; 8.5 μmol/kg, one cycle)?
A: 8.3 ± 0.4 × 10^6 cells/μl

Q: And the WBC ([1]; 8.5 μmol/kg, one cycle)?
A: 4.8 ± 1.2 × 10^3 cells/μl

Q: And the PLT ([1]; 8.5 μmol/kg, two cycles)?
A: 906 ± 140 × 10^3 cells/μl

Q: What about the RBC ([1]; 8.5 μmol/kg, two cycles) of the same molecule?
A: 8.3 ± 0.2 × 10^6 cells/μl

Q: What about the WBC ([1]; 8.5 μmol/kg, two cycles) of the same molecule?
A: 5.3 ± 1.6 × 10^3 cells/μl

Q: And the PLT ([1]; 21.25 μmol/kg, one cycle)?
A: 752 ± 416^b × 10^3 cells/μl

Q: And the RBC ([1]; 21.25 μmol/kg, one cycle)?
A: 8.4 ± 0.6^a × 10^6 cells/μl

Q: What about the WBC ([1]; 21.25 μmol/kg, one cycle) of the same molecule?
A: 3.8 ± 1.1^b,* × 10^3 cells/μl

Q: And the PLT ([1]; 21.25 μmol/kg, two cycles)?
A: 1351 ± 126 × 10^3 cells/μl

Q: And the RBC ([1]; 21.25 μmol/kg, two cycles)?
A: 8.0 ± 0.3 × 10^6 cells/μl

Q: What about the WBC ([1]; 21.25 μmol/kg, two cycles) of the same molecule?
A: 3.6 ± 0.1 × 10^3 cells/μl

Q: And the “change in peripheral white blood cell counts” value ([1]; trans-AVTG: only 21.25 μmol/kg two cycles, 6-TG: 8.5 or 21.25 μmol/kg one cycle or 21.25 μmol/kg two cycles)?
A: reduced white blood cell counts

Q: And the “dose absorbed after oral administration” value [2]?
A: up to 46%

Q: What about the GI50 (MDA-MB-435) of the same molecule?
A: 0.84 µM

Q: And the TGI (MDA-MB-435)?
A: 31.9 µM

Q: And the CC50 (MDA-MB-435; [3])?
A: > 100 µM

Q: And the GI50 (OVCAR-4)?
A: 1.49 µM

Q: What about the TGI (OVCAR-4) of the same molecule?
A: 99.5 µM

Q: What about the CC50 (OVCAR-4; [3]) of the same molecule?
A: > 100 µM

Q: What about the GI50 (OVCAR-8) of the same molecule?
A: 0.69 µM

Q: What about the TGI (OVCAR-8) of the same molecule?
A: 60.0 µM

Q: What about the CC50 (OVCAR-8; [3]) of the same molecule?
A: > 100 µM
